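These data come from cells grown in 96-well plates and exposed to compound for 48 hours at five concentrations. GI50 = concentration required for 50% inhibition of growth.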 The source made the active and inactive calls. Rule as the data show it: active = GI50 up to about 1.1 µM and inactive = higher.
Experiments:
Assay in all cases: NCI anticancer screen, dose series, 48 h
[1] = system: HL-60
[2] = system: LOX IMVI
[3] = system: MDA-MB-231
[4] = system: MDA-MB-435
[5] = system: MOLT-4
[6] = system: NCI-H460
[7] = system: OVCAR-4
[8] = system: PC-3
[9] = system: RPMI-8226
[10] = system: SF-295
[11] = system: SF-539
[12] = system: SR
[13] = system: SW-620
[14] = system: T47D
[15] = system: TK-10
[16] = system: UACC-257
[17] = system: UO-31
[18] = system: OVCAR-3
[19] = system: SN12C
[20] = system: MDA-N

| SMILES | GI50 [1] | GI50 [2] | GI50 [3] | GI50 [4] | GI50 [5] | GI50 [6] | GI50 [7] | GI50 [8] | GI50 [9] | GI50 [10] | GI50 [11] | GI50 [12] | GI50 [13] | GI50 [14] | GI50 [15] | GI50 [16] | GI50 [17] | GI50 [18] | GI50 [19] | GI50 [20] |
| --- | --- | --- | --- | --- | --- | --- | --- | --- | --- | --- | --- | --- | --- | --- | --- | --- | --- | --- | --- | --- |
| COc1ccc2c(=O)c3ccoc3[nH]c2c1 | > 100 µM (inactive) | > 100 µM (inactive) | > 100 µM (inactive) | > 100 µM (inactive) | > 100 µM (inactive) | > 100 µM (inactive) | > 100 µM (inactive) | > 100 µM (inactive) | > 100 µM (inactive) | > 100 µM (inactive) | > 100 µM (inactive) | > 100 µM (inactive) | > 100 µM (inactive) | > 100 µM (inactive) | > 100 µM (inactive) | > 100 µM (inactive) | > 100 µM (inactive) | – | – | – |
| N=C(N)N/N=C/c1c(-c2ccc(Cl)c([N+](=O)[O-])c2)nc2sccn12 | 1.96 µM (inactive) | 2.22 µM (inactive) | 1.74 µM (inactive) | 0.6 µM (active) | 1.71 µM (inactive) | 1.79 µM (inactive) | 1.79 µM (inactive) | 1.65 µM (inactive) | 2.06 µM (inactive) | 1.75 µM (inactive) | 1.82 µM (inactive) | 2.05 µM (inactive) | 1.53 µM (inactive) | 0.493 µM (active) | 1.76 µM (inactive) | 1.91 µM (inactive) | 1.85 µM (inactive) | 1.34 µM (inactive) | 1.82 µM (inactive) | – |
| COc1ccc(-c2csc(-n3c(-c4ccccc4)nc4c(Br)cc(Br)cc4c3=O)n2)cc1 | 20.2 µM (inactive) | 29.9 µM (inactive) | 28.5 µM (inactive) | 38.3 µM (inactive) | 17.8 µM (inactive) | 34.2 µM (inactive) | 63.2 µM (inactive) | 25.8 µM (inactive) | 7.74 µM (inactive) | 25.2 µM (inactive) | – | – | 33.6 µM (inactive) | – | 51.5 µM (inactive) | 30.3 µM (inactive) | 23.4 µM (inactive) | 25.2 µM (inactive) | – | 25.4 µM (inactive) |
| CO[C@]12C[C@H](CNC(=O)c3ccc[nH]3)O[C@H]1NC(=O)N2 | > 100 µM (inactive) | > 100 µM (inactive) | > 100 µM (inactive) | > 100 µM (inactive) | – | > 100 µM (inactive) | – | > 100 µM (inactive) | > 100 µM (inactive) | > 100 µM (inactive) | > 100 µM (inactive) | 9.31 µM (inactive) | > 100 µM (inactive) | > 100 µM (inactive) | > 100 µM (inactive) | > 100 µM (inactive) | > 100 µM (inactive) | > 100 µM (inactive) | > 100 µM (inactive) | – |
| CCC(=O)Nc1cccc(NC(=O)c2c(Cl)c(Cl)c(Cl)c(Cl)c2-c2nc3ccccc3[nH]2)c1 | 43 µM (inactive) | 77.4 µM (inactive) | – | 32.4 µM (inactive) | 22.8 µM (inactive) | 37.8 µM (inactive) | 71.6 µM (inactive) | 44.8 µM (inactive) | 8.02 µM (inactive) | 0.0417 µM (active) | > 100 µM (inactive) | 17.6 µM (inactive) | > 100 µM (inactive) | 7.82 µM (inactive) | – | 59 µM (inactive) | 21.7 µM (inactive) | > 100 µM (inactive) | > 100 µM (inactive) | 22 µM (inactive) |
| CC(C)NC(=O)OCc1c(COC(=O)NC(C)C)c(-c2ccc[n+](COC(=O)C3CC3)c2)n2c1CCC2 | 29.6 µM (inactive) | 38.8 µM (inactive) | > 100 µM (inactive) | > 100 µM (inactive) | 14.9 µM (inactive) | 24.2 µM (inactive) | 45.8 µM (inactive) | 50.5 µM (inactive) | 60.4 µM (inactive) | 45.9 µM (inactive) | 44.7 µM (inactive) | 3.51 µM (inactive) | > 100 µM (inactive) | 86.7 µM (inactive) | > 100 µM (inactive) | > 100 µM (inactive) | 41.2 µM (inactive) | > 100 µM (inactive) | 48.1 µM (inactive) | – |
| CCOC(=O)C(C(=O)OCC)C(=O)c1ccccc1C(=O)c1ccccc1 | > 100 µM (inactive) | > 100 µM (inactive) | > 100 µM (inactive) | > 100 µM (inactive) | 23.4 µM (inactive) | > 100 µM (inactive) | > 100 µM (inactive) | – | – | > 100 µM (inactive) | > 100 µM (inactive) | 18.1 µM (inactive) | 19.5 µM (inactive) | > 100 µM (inactive) | > 100 µM (inactive) | > 100 µM (inactive) | > 100 µM (inactive) | 74 µM (inactive) | > 100 µM (inactive) | – |
| CNC(=S)N/N=C(\C(=N/NC(=S)NC)c1ccccn1)c1ccccn1 | – | 4.82 µM (inactive) | – | 13.8 µM (inactive) | – | 0.348 µM (active) | 10.9 µM (inactive) | 1.03 µM (active) | 32.8 µM (inactive) | 3.15 µM (inactive) | 45.8 µM (inactive) | – | 1.24 µM (inactive) | – | 4.04 µM (inactive) | 1.82 µM (inactive) | 2.48 µM (inactive) | 0.31 µM (active) | 4.08 µM (inactive) | 44.3 µM (inactive) |

Reference: ChEMBL document CHEMBL1201862, “PubChem BioAssay data set” (2004)
